Like-named read-outs stand apart in the source and are kept apart here.
Tests used:
[1] = test system: TG2:gluten complexes uptake by TG2-specific B cells (A20, BCR 679-14-E06); assay: Inhibition by primary amines of TG2:gluten complex uptake by TG2-specific B cells, flow cytometry; type: cell-based, Murine A20 B lymphoma; recombinant human TG2; conditions: for IC50: B-cell
Description: (§1) Murine A20 B lymphoma cells engineered to express either the celiac patient‐derived TG2‐specific BCR 679‐14‐E06 or the non‐TG2‐specific BCR 693‐2‐F02 as human IgD are previously described. For B‐cell/T‐cell collaboration assays, we used A20 BCR transfectants also transduced to express HLA‐DQ2.5 [27]. Murine BW58α^–β^– cells were retrovirally transduced to express human CD4 as well as the celiac patient‐derived gluten‐specific TCR from a DQ2.5‐glia‐γ1‐reactive T‐cell clone (TCC 4.32) as previously described. The generation of TCR transfectants expressing DQ2.5‐glia‐α2‐reactive TCR (TCC 364.14) and DQ2.5‐glia‐ω2‐reactive TCR (clone 737.30) have been described previously.
B‐cell uptake of gluten peptides was measured essentially as previously described. The following 9‐mer peptides were compared: FITC‐α2, FITC‐ω2, FITC‐γ1, and FITC‐γ3. In brief, A20 cells (300 000/well) expressing TG2‐specific (679‐14‐E06) or non‐TG2 specific BCR (693‐2‐F02) were incubated with recombinant TG2 (final 3 µg/mL), 5 µM FITC peptide, and 2 mM CaCl2 in RPMI at a final volume of 50 µL. Following incubation at 37°C, the TG2 enzymatic activity was quenched by the addition of 100 µL 2 mM EDTA/RPMI at specific timepoints. Cells were washed, fixed in 2% methanol‐free formaldehyde (Invitrogen), resuspended in 2% fetal calf serum (FCS)/PBS, and analyzed by flow cytometry (Attune NxT Flow Cytometer, Thermo Scientific). For each peptide, a delta MFI was calculated by subtracting MFI from non‐TG2 specific A20 cell (unspecific binding) from MFI of TG2‐specific A20 cells. Delta MFI was normalized for each experiment by dividing by the highest delta value per experiment. To assess the contribution and uptake of isopeptide‐linked TG2:gluten complexes, TG2 (3 µg/mL) and FITC‐labelled peptides (5 µM) were preincubated in RPMI with 2 mM CaCl2 at 37°C for 30 min before addition of A20 cells followed by 30 min incubation at 37°C. To examine the effect of TG2 secondary substrates on peptide uptake, the primary amines spermine (Sigma–Aldrich) and biotinylated cadaverine (5‐biotinamido‐pentylamine; 5‐BP, Pierce) were added to the reaction mixture (0.1–1000 µM final concentration), followed by 10 min incubation at 37°C and flow cytometry analysis. The dose‐response curve fitting to find IC50 was done using the “[Inhibitor] vs. response” equation in GraphPad Prism 8.3.0. Of note, the presence of Lysine HCl in RPMI medium represents an experimental constant in our assays that is not accounted for when calculating the competitive effect of amine.

[2] = test system: TCR-transfectant cells specific for DQ2.5-glia-α2; assay: Inhibition by primary amines of activation of DQ2.5-glia-α2-specific T cells by TG2-specific B cells, IL-2 ELISA; type: cell-based; conditions: for IC50: 5 µM N-α-gliadin 33-mer, TG2, CaCl2, amine 0-1000 µM, IL-2 ELISA
Description: as §1
The B‐cell/T‐cell collaboration assays were set up as previously described. To compare the uptake and presentation of different gluten peptides to T cells, A20 cells (5 mill/mL) expressing the TG2‐specific BCR (679‐14‐E06) and HLA DQ2.5 were incubated with recombinant TG2 (final 3 µg/mL) and varying amounts of N‐α‐gliadin 20‐mer, N‐ω‐gliadin 19‐mer, or N‐γ‐gliadin 21‐mer in RPMI supplemented with 2 mM CaCl2. After a 30 min incubation at 37°C the cells were washed with 1% FCS/RPMI and resuspended in 5% FCS/RPMI to give a final 1.5 million cells/mL (150 000/well) followed by 2 h incubation at 37°C. Next, TCR‐transfectant cells specific for either DQ2.5‐glia‐α2, DQ2.5‐glia‐ω2, or DQ2.5‐glia‐γ1 were added (25 000/well), followed by overnight incubation at 37°C. The next day, IL‐2 concentration was measured in the culture supernatant by ELISA as previously described. The responsiveness of different TCR transfectants was assessed in the same way, but without the 30 min incubation with TG2, and using the synthetic deamidated peptides (D‐α‐gliadin 20‐mer, D‐ω‐gliadin 17‐mer, and D‐γ‐gliadin 21‐mer). To assess how TG2 secondary substrate affects peptide uptake and presentation to T cells, TG2‐specific A20 cells expressing DQ2.5 were incubated with TG2, CaCl2, 5 µM N‐ω‐gliadin 34‐mer, or 5 µM N‐α‐gliadin 33‐mer in the presence of primary amines at increasing concentrations (0‐1000 µM), before the addition of TCR‐transfectant cells specific for the DQ2.5‐glia‐α2 or DQ2.5‐glia‐ω2 epitopes. The dose‐response curve fitting to find IC50 was done using the “[Inhibitor] vs. response” equation in GraphPad Prism 8.3.0. To examine whether primary amines directly affect the B cells, TG2‐specific A20 cell expressing DQ2.5 were incubated with primary amines for 30 min and washed, before addition of 2 µM D‐ω‐gliadin 34‐mer, followed by incubation with DQ2.5‐glia‐ω2 TCR transfectants.

[3] = logIC50, inhibition of FITC-α2 uptake, Figure 4
[4] = logIC50, inhibition of FITC-α2 uptake, mean
[5] = logIC50, inhibition of FITC-α2 uptake, replicate Figure S4 A
[6] = logIC50, inhibition of FITC-α2 uptake, replicate Figure S4 B
[7] = logIC50, inhibition of FITC-γ1 uptake, Figure 4
[8] = logIC50, inhibition of FITC-γ1 uptake, mean
[9] = logIC50, inhibition of FITC-γ1 uptake, replicate Figure S4 C
[10] = logIC50, inhibition of FITC-ω2 uptake, Figure 4
[11] = logIC50, inhibition of FITC-ω2 uptake, mean
[12] = logIC50, inhibition of FITC-ω2 uptake, replicate Figure S4 A
[13] = DQ2.5-glia-α2, replicate Figure S5A
[14] = DQ2.5-glia-α2, replicate Figure S5B
[15] = logIC50, DQ2.5-glia-α2, Figure 5
[16] = logIC50, DQ2.5-glia-α2, replicate Figure S5A
[17] = logIC50, DQ2.5-glia-α2, replicate Figure S5B

Work on `NCCCNCCCCNCCCN` [spermine] yielded an IC50 ([1]; 10 min, inhibition of FITC-α2 (5 µM) uptake, TG2 3 µg/mL, 2 mM CaCl2, RPMI, 37°C 10 min, Figure 4, read-out: IC50) of 29.3 µM, an IC50 ([1]; 10 min, inhibition of FITC-α2 (5 µM) uptake, TG2 3 µg/mL, 2 mM CaCl2, RPMI, 37°C 10 min, mean, read-out: IC50) of 66.1 µM and an IC50 ([1]; 10 min, inhibition of FITC-α2 (5 µM) uptake, TG2 3 µg/mL, 2 mM CaCl2, RPMI, 37°C 10 min, replicate Figure S4 A, read-out: IC50) of 47.6 µM. It also gave an IC50 ([1]; 10 min, inhibition of FITC-α2 (5 µM) uptake, TG2 3 µg/mL, 2 mM CaCl2, RPMI, 37°C 10 min, replicate Figure S4 B, read-out: IC50) of 121 µM, an IC50 ([1]; 10 min, inhibition of FITC-γ1 (5 µM) uptake, TG2 3 µg/mL, 2 mM CaCl2, RPMI, 37°C 10 min, Figure 4, read-out: IC50) of 45.3 µM and an IC50 ([1]; 10 min, inhibition of FITC-γ1 (5 µM) uptake, TG2 3 µg/mL, 2 mM CaCl2, RPMI, 37°C 10 min, mean, read-out: IC50) of 31.9 µM. It also gave an IC50 ([1]; 10 min, inhibition of FITC-γ1 (5 µM) uptake, TG2 3 µg/mL, 2 mM CaCl2, RPMI, 37°C 10 min, replicate Figure S4 C, read-out: IC50) of 18.7 µM, an IC50 ([1]; 10 min, inhibition of FITC-ω2 (5 µM) uptake, TG2 3 µg/mL, 2 mM CaCl2, RPMI, 37°C 10 min, Figure 4, read-out: IC50) of 14 µM and an IC50 ([1]; 10 min, inhibition of FITC-ω2 (5 µM) uptake, TG2 3 µg/mL, 2 mM CaCl2, RPMI, 37°C 10 min, mean (spermine: Figure S4 B not included), read-out: IC50) of 26.1 µM. For the same molecule, the IC50 ([1]; 10 min, inhibition of FITC-ω2 (5 µM) uptake, TG2 3 µg/mL, 2 mM CaCl2, RPMI, 37°C 10 min, replicate Figure S4 A, read-out: IC50) was 38.2 µM, the IC50 ([1]; FITC 9-mer native gluten peptides, average IC50 values, Table S1, read-out: IC50, inhibition of FITC-9-mer peptide uptake (average values)) was 26 to 72 µM and the “inhibition of FITC-9-mer uptake, in words” value ([1]; TG2 3 µg/mL, FITC peptide 5 µM, 2 mM CaCl2, 37°C 10 min, Figure 4, Figure S4) was “effectively inhibited uptake”. For the same molecule, the logIC50 ([1]; inhibition of FITC-α2 uptake, Figure 4) was 1.47, the logIC50 ([1]; inhibition of FITC-α2 uptake, mean) was 1.74 and the logIC50 ([1]; inhibition of FITC-α2 uptake, replicate Figure S4 A) was 1.68. The logIC50 ([1]; inhibition of FITC-α2 uptake, replicate Figure S4 B) was 2.08, the logIC50 ([1]; inhibition of FITC-γ1 uptake, Figure 4) was 1.66 and the logIC50 ([1]; inhibition of FITC-γ1 uptake, mean) was 1.46. It also gave a logIC50 ([1]; inhibition of FITC-γ1 uptake, replicate Figure S4 C) of 1.27, a logIC50 ([1]; inhibition of FITC-ω2 uptake, Figure 4) of 1.15 and a logIC50 ([1]; inhibition of FITC-ω2 uptake, mean) of 1.36. For the same molecule, the logIC50 ([1]; inhibition of FITC-ω2 uptake, replicate Figure S4 A) was 1.58, the logIC50 ([1]; inhibition of FITC-ω2 uptake, replicate Figure S4 B) was 16.4 and the “log 95% CI lower limit” value [1, 3] was 0.911. The “log 95% CI upper limit” value [1, 3] was 2.19, the “log 95% CI lower limit” value [1, 4] was 1.31 and the “log 95% CI upper limit” value [1, 4] was 2.23. The “log 95% CI lower limit” value [1, 5] was 1.49, the “log 95% CI upper limit” value [1, 5] was 1.864 and the “log 95% CI lower limit” value [1, 6] was 1.53. For the same molecule, the “log 95% CI upper limit” value [1, 6] was 2.63, the “log 95% CI lower limit” value [1, 7] was 1.20 and the “log 95% CI upper limit” value [1, 7] was 2.08. For the same molecule, the “log 95% CI lower limit” value [1, 8] was 1.02, the “log 95% CI upper limit” value [1, 8] was 2.0 and the “log 95% CI lower limit” value [1, 9] was 0.84. For the same molecule, the “log 95% CI upper limit” value [1, 9] was 1.92, the “log 95% CI lower limit” value [1, 10] was 0.93 and the “log 95% CI upper limit” value [1, 10] was 1.39. For the same molecule, the “log 95% CI lower limit” value [1, 11] was 1.16, the “log 95% CI upper limit” value [1, 11] was 1.59 and the “log 95% CI lower limit” value [1, 12] was 1.38. For the same molecule, the “log 95% CI upper limit” value [1, 12] was 1.79, the IC50 ([2]; DQ2.5-glia-α2, Figure 5) was 77.3 µM and the IC50 ([2]; DQ2.5-glia-α2, mean) was 58 µM. The IC50 [2, 13] was 17.7 µM, the IC50 [2, 14] was 78.9 µM and the logIC50 ([2]; DQ2.5-glia-α2, Figure 5) was 1.89. The logIC50 ([2]; DQ2.5-glia-α2, mean) was 1.68, the logIC50 [2, 13] was 1.25 and the logIC50 [2, 14] was 1.90. For the same molecule, the “log 95% CI lower limit” value [2, 15] was 1.53, the “log 95% CI upper limit” value [2, 15] was 2.27 and the “log 95% CI lower limit” value ([2]; logIC50, DQ2.5-glia-α2, mean) was 1.25. The “log 95% CI upper limit” value ([2]; logIC50, DQ2.5-glia-α2, mean) was 2.11, the “log 95% CI lower limit” value [2, 16] was 0.638 and the “log 95% CI upper limit” value [2, 16] was 1.83. For the same molecule, the “log 95% CI lower limit” value [2, 17] was 1.59 and the “log 95% CI upper limit” value [2, 17] was 2.22.

Source: paper PMC9545004, “Transglutaminase 2 affinity and enzyme‐substrate intermediate stability as determining factors for T‐cell responses to gluten peptides in celiac disease” (European Journal of Immunology, 2022)
